Results from patent US20020062499A1, “Methods for translational repression of gene expression in plants” (priority 2000, published 2002).

Tests used:
transgenic corn lines = test: Field test of MS2 translation repression system transgenic corn lines; format: in vivo; conditions: 32 oz/acre Roundup® at the 6-8 leaf stage; transgenic TRS corn lines
Description: Field tests are conducted to evaluate the vegetative tolerance and male sterility of transgenic corn lines selected from the greenhouse tests. Lines for the field trial are selected based on previous scores showing good to excellent vegetative tolerance, very high or complete male sterility induced by glyphosate, and available seed supply. The pedigree of plants in the field test is either [(Ro×B73)×B73] or (B73×Ro). Based on these pedigrees, it is expected that half of the plants in a plot would be killed by glyphosate (formulated Roundup®) application, because they would not contain the transgene.
The field test is set up in two blocks, each block containing four groups of plots that would receive a single spray treatment. The treatments are (1) no spray, (2) 32 oz/acre Roundup® at the 1-2 leaf stage, (3) 32 oz/acre Roundup® at the 4-5 leaf stage, and (4) 32 oz/acre Roundup® at the 6-8 leaf stage. Plants are scored for male fertility when they began to flower, and scoring is repeated every 1-2 days for about eight days. Observations included the length of time between emergence of the tassel from the first plants and from the last plant in each plot. A sample of the anthers is collected from each plant, and the viability of pollen is judged with the aid of a hand-held microscope.

[1] = system: non-transgenic parental control plant (M202); test: Glyphosate treatment of non-transgenic parental control rice; format: in vivo; conditions: 64 oz./A glyphosate
Description: The anther-specific promoter P-Ta.1674-19 is amplified from wheat genomic DNA by Genome Walker™ as a HindIII/BglII fragment, digested with these two enzymes, and the fragment ligated into pMON42180 (FIG. 3) digested with the same enzymes, resulting in pMON52000. The plant expression vector pMON52001 (FIG. 27) is constructed by taking the Not I fragment containing of P-Ta. 1674-19/I-Zm.Hsp70/MS2. CP:en/T-AGRTU.nos from pMON52000 and ligating into pMON42916 (FIG. 7) digested with Not I. pMON42438 (FIG. 28) and pMON42439 (FIG. 29) are constructed by replacing the wheat P-Ta. 1674-19 promoter element of pMON52001 with corn anther-specific promoters P-700353038 and P-70053844, respectively. pMON42945 (FIG. 30) is constructed by ligating the Not I fragment consisting of P-L1482830/I-Zm.Hsp70/MS2.CP:en/T-AGRTU.nos into pMON42916. These promoter elements are isolated from wheat and corn anther DNA libraries by Genome Walker™. Rice variety M202 is transformed by Agrobacterium-mediated transformation. […] Vegetative tolerance to the glyphosate is visually evaluated 21 DAT (day after treatment) based on a scale of 0 to 5 (as discussed above). […] Male sterility is scored at maturity by counting the number of empty florets and dividing by the total number of florets (filled plus empty) in each panicle.

SMILES: O=C(O)CNCP(=O)(O)O [glyphosate, N-phosphonomethylglycine]
- male sterility under field conditions (transgenic corn lines): very effective for producing male sterility
- effect of the glyphosate treatment on the non-transgenic parental control plant [1]: killed
